Data: patent US20230085307A1, “PYRIDAZINONE COMPOUND AND HERBICIDE” (NISSAN CHEMICAL CORPORATION, priority 2019, published 2023)

Experiments:
Japanese bulrush = experiment: Test Example 1: herbicidal activity, application before weed generation under submerged conditions (Table 16, symbol B); type: in vivo, Japanese bulrush (Schoenoplectus juncoides); conditions: 320 g/ha applied herbicide
In short: (§1)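 Alluvial soil was flooded to 4 cm depth, weed seeds were sown mixed and 2.5-leaf rice seedlings were transplanted. On sowing day, the compound's emulsion, diluted in water to a set dose, was applied to the water surface. Plants grew at 25–30 °C and were scored 0–5 after three weeks.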

oval-leafed pondweed = experiment: Test Example 1: herbicidal activity, application before weed generation under submerged conditions (Table 16, symbol C); type: in vivo, oval-leafed pondweed (Monochoria vaginalis); conditions: 320 g/ha applied herbicide
In short: as §1

late watergrass = experiment: Test Example 2: herbicidal activity, application during weed generation under submerged conditions (Table 17, symbol A); type: in vivo, late watergrass (Echinochloa oryzicola); conditions: AAH 320 g/ha; application during weed generation, submerged conditions
In short: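 Alluvial soil in Wagner pots was flooded to 4 cm depth and sown with the three weeds together; pots were kept in a greenhouse at 25° C. to 30° C. At the one to two leaf stage, an emulsion formulation diluted in water to a set rate went onto the water surface; scored three weeks later.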

barnyard grass [1] = experiment: Test Example 3: herbicidal effect by foliage application, Wagner pot (Table 18, symbol H); type: in vivo, barnyard grass (Echinochloa crus-galli); conditions: amount of applied herbicide 320 g/ha
In short: (§2)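 Plants were sown in alluvial soil held under 0.1–0.5 cm standing water and grown 14 days in a greenhouse at 25–30 °C. An emulsifiable formulation, water-diluted to the set dose, was then sprayed onto the foliage, and effects were scored three weeks later using previously defined criteria.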

Chinese sprangletop = experiment: Test Example 3: herbicidal effect by foliage application, Wagner pot (Table 18, symbol D); type: in vivo, chinese sprangletop (Leptochloa chinensis); conditions: amount of applied herbicide 320 g/ha
In short: as §2

barnyard grass [2] = experiment: Test Example 4: herbicidal effect by soil treatment (Table 19, symbol H); type: in vivo, barnyard grass (Echinochloa crus-galli); conditions: amount of applied herbicide 320 g/ha
In short: (§3)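 Step 1: sow seeds in sterilized diluvial soil, cover ~1.5 cm. Step 2: spray diluted emulsion onto soil surface at predetermined rate. Step 3: greenhouse, 25–30° C, three weeks. Step 4: grade effect on each plant by earlier criteria.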

windgrass = experiment: Test Example 4: herbicidal effect by soil treatment (Table 19, symbol L); type: in vivo, windgrass (Apera spica-venti); conditions: amount of applied herbicide 320 g/ha
In short: as §3

velvetleaf [3] = experiment: Test Example 4: herbicidal effect by soil treatment (Table 19, symbol M); type: in vivo, velvetleaf (Abutilon theophrasti); conditions: amount of applied herbicide 320 g/ha
In short: as §3

lambsquarters [4] = experiment: Test Example 4: herbicidal effect by soil treatment (Table 19, symbol O); type: in vivo, lambsquarters (Chenopodium album); conditions: amount of applied herbicide 320 g/ha
In short: as §3

persian speedwell = experiment: Test Example 4: herbicidal effect by soil treatment (Table 19, symbol R); type: in vivo, Persian speedwell (Veronica persica); conditions: amount of applied herbicide 320 g/ha
In short: as §3

barnyard grass [5] = experiment: Test Example 5: herbicidal effect by foliage application, plastic box (Table 20, symbol H); type: in vivo, barnyard grass (Echinochloa crus-galli); conditions: foliage application, evaluated three weeks after application; for H: barnyard grass, herbicidal effect (criteria 0-5): AAH 320 g/ha; for herbicidal effect on H: barnyard grass (criteria 0-5): 320 g/ha
In short: (§4)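 Foliar spray test: emulsion formulation diluted in water to a set application rate, sprayed onto 14-day-old plants raised in diluvial soil at 25° C to 30° C under glass. Both herbicidal effect and crop effect rated visually three weeks later.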

blackgrass = experiment: Test Example 5: herbicidal effect by foliage application, plastic box (Table 20, symbol J); type: in vivo, blackgrass (Alopecurus myosuroides); conditions: foliage application, evaluated three weeks after application; for J: blackgrass, herbicidal effect (criteria 0-5): AAH 320 g/ha; for herbicidal effect on J: blackgrass (criteria 0-5): 320 g/ha
In short: as §4

Italian ryegrass = experiment: Test Example 5: herbicidal effect by foliage application, plastic box (Table 20, symbol K); type: in vivo, Italian ryegrass (Lolium multiflorum); conditions: foliage application, evaluated three weeks after application; for K: Italian ryegrass, herbicidal effect (criteria 0-5): AAH 320 g/ha; for herbicidal effect on K: Italian ryegrass (criteria 0-5): 320 g/ha
In short: as §4

velvetleaf [6] = experiment: Test Example 5: herbicidal effect by foliage application, plastic box (Table 20, symbol M); type: in vivo, velvetleaf (Abutilon theophrasti); conditions: foliage application, evaluated three weeks after application; for M: velvetleaf, herbicidal effect (criteria 0-5): AAH 320 g/ha; for herbicidal effect on M: velvetleaf (criteria 0-5): 320 g/ha
In short: as §4

redroot pigweed = experiment: Test Example 5: herbicidal effect by foliage application, plastic box (Table 20, symbol N); type: in vivo, redroot pigweed (Amaranthus retroflexus); conditions: foliage application, evaluated three weeks after application; for N: redroot pigweed, herbicidal effect (criteria 0-5): AAH 320 g/ha; for herbicidal effect on N: redroot pigweed (criteria 0-5): 320 g/ha
In short: as §4

lambsquarters [7] = experiment: Test Example 5: herbicidal effect by foliage application, plastic box (Table 20, symbol O); type: in vivo, lambsquarters (Chenopodium album); conditions: foliage application, evaluated three weeks after application; for O: lambsquarters, herbicidal effect (criteria 0-5): AAH 320 g/ha; for herbicidal effect on O: lambsquarters (criteria 0-5): 320 g/ha
In short: as §4

Row | Compound | Herbicidal effect on B: Japanese bulrush (grade 0-5) (Japanese bulrush) | Herbicidal effect on C: oval-leafed pondweed (grade 0-5) (oval-leafed pondweed) | herbicidal effect rating, A: late watergrass (late watergrass) | herbicidal effect on H: barnyard grass (barnyard grass [1]) | herbicidal effect on D: Chinese sprangletop (Chinese sprangletop) | herbicidal effect on H: barnyard grass (barnyard grass [2]) | herbicidal effect on L: windgrass (windgrass) | herbicidal effect on M: velvetleaf (velvetleaf [3]) | herbicidal effect on O: lambsquarters (lambsquarters [4]) | herbicidal effect on R: persian speedwell (persian speedwell) | H: barnyard grass, herbicidal effect (criteria 0-5) (barnyard grass [5]) | J: blackgrass, herbicidal effect (criteria 0-5) (blackgrass) | K: Italian ryegrass, herbicidal effect (criteria 0-5) (Italian ryegrass) | M: velvetleaf, herbicidal effect (criteria 0-5) (velvetleaf [6]) | N: redroot pigweed, herbicidal effect (criteria 0-5) (redroot pigweed) | O: lambsquarters, herbicidal effect (criteria 0-5) (lambsquarters [7]) | H: barnyard grass, herbicidal effect rating (barnyard grass [2]) | L: windgrass, herbicidal effect rating (windgrass) | M: velvetleaf, herbicidal effect rating (velvetleaf [3]) | O: lambsquarters, herbicidal effect rating (lambsquarters [4]) | other results
1 | C=CCOC(=O)Oc1c(C)nn(C)c(=O)c1-c1c(-c2ccc(OC(F)F)cc2)sc2ccc(F)cc12 [2-294] | 5 (Herbicidal rate of 90% or more (almost completely withered)) | 4 (Herbicidal rate of 70% or more and less than 90%) | 3 (Herbicidal rate of 40% or more and less than 70%) | 5 (Herbicidal rate of 90% or more (almost completely withered)) | 4 (Herbicidal rate of 70% or more and less than 90%) | 5 (Herbicidal rate of 90% or more (almost completely withered)) | 4 (Herbicidal rate of 70% or more and less than 90%) | 5 (Herbicidal rate of 90% or more (almost completely withered)) | 5 (Herbicidal rate of 90% or more (almost completely withered)) | 5 (Herbicidal rate of 90% or more (almost completely withered)) | 5 (Herbicidal rate of 90% or more (almost completely withered)) | 4 (Herbicidal rate of 70% or more and less than 90%) | 5 (Herbicidal rate of 90% or more (almost completely withered)) | 5 (Herbicidal rate of 90% or more (almost completely withered)) | 5 (Herbicidal rate of 90% or more (almost completely withered)) | 5 (Herbicidal rate of 90% or more (almost completely withered)) | – | – | – | – | –
2 | CCCC(=O)Oc1c(C)nn(C)c(=O)c1-c1c(-c2ccc(OC3CC3)cc2)sc2ccc(F)cc12 [2-218] | 5 (Herbicidal rate of 90% or more (almost completely withered)) | 5 (Herbicidal rate of 90% or more (almost completely withered)) | 1 (Herbicidal rate of 5% or more and less than 20%) | 5 (Herbicidal rate of 90% or more (almost completely withered)) | 3 (Herbicidal rate of 40% or more and less than 70%) | – | – | – | – | – | – | – | – | – | – | – | 0 (Herbicidal rate of 5% or less (almost no effect)) | 0 (Herbicidal rate of 5% or less (almost no effect)) | 0 (Herbicidal rate of 5% or less (almost no effect)) | 4 (Herbicidal rate of 70% or more and less than 90%) | R: persian speedwell, herbicidal effect rating (persian speedwell): 4 (Herbicidal rate of 70% or more and less than 90%); herbicidal effect on H: barnyard grass (criteria 0-5) (barnyard grass [5]): 4 (Herbicidal rate of 70% or more and less than 90%); herbicidal effect on J: blackgrass (criteria 0-5) (blackgrass): 1 (Herbicidal rate of 5% or more and less than 20%); herbicidal effect on K: Italian ryegrass (criteria 0-5) (Italian ryegrass): 4 (Herbicidal rate of 70% or more and less than 90%); herbicidal effect on M: velvetleaf (criteria 0-5) (velvetleaf [6]): 5 (Herbicidal rate of 90% or more (almost completely withered)); herbicidal effect on N: redroot pigweed (criteria 0-5) (redroot pigweed): 2 (Herbicidal rate of 20% or more and less than 40%); herbicidal effect on O: lambsquarters (criteria 0-5) (lambsquarters [7]): 5 (Herbicidal rate of 90% or more (almost completely withered))
3 | Cc1nn(C)c(=O)c(-c2c(-c3ccc(Cl)cc3F)sc3ccc(F)cc23)c1O [2-348] | 3 (Herbicidal rate of 40% or more and less than 70%) | 0 (Herbicidal rate of 5% or less (almost no effect)) | 3 (Herbicidal rate of 40% or more and less than 70%) | 5 (Herbicidal rate of 90% or more (almost completely withered)) | 5 (Herbicidal rate of 90% or more (almost completely withered)) | 3 (Herbicidal rate of 40% or more and less than 70%) | 0 (Herbicidal rate of 5% or less (almost no effect)) | 1 (Herbicidal rate of 5% or more and less than 20%) | 5 (Herbicidal rate of 90% or more (almost completely withered)) | 4 (Herbicidal rate of 70% or more and less than 90%) | 5 (Herbicidal rate of 90% or more (almost completely withered)) | 4 (Herbicidal rate of 70% or more and less than 90%) | 4 (Herbicidal rate of 70% or more and less than 90%) | 5 (Herbicidal rate of 90% or more (almost completely withered)) | 5 (Herbicidal rate of 90% or more (almost completely withered)) | 5 (Herbicidal rate of 90% or more (almost completely withered)) | – | – | – | – | –
4 | CCCC(=O)Oc1c(C)nn(C)c(=O)c1-c1c(-c2cccc(F)c2)sc2ccc(F)cc12 [2-202] | 0 (Herbicidal rate of 5% or less (almost no effect)) | 0 (Herbicidal rate of 5% or less (almost no effect)) | 4 (Herbicidal rate of 70% or more and less than 90%) | 5 (Herbicidal rate of 90% or more (almost completely withered)) | 5 (Herbicidal rate of 90% or more (almost completely withered)) | – | – | – | – | – | – | – | – | – | – | – | 4 (Herbicidal rate of 70% or more and less than 90%) | 0 (Herbicidal rate of 5% or less (almost no effect)) | 0 (Herbicidal rate of 5% or less (almost no effect)) | 5 (Herbicidal rate of 90% or more (almost completely withered)) | R: persian speedwell, herbicidal effect rating (persian speedwell): 4 (Herbicidal rate of 70% or more and less than 90%); herbicidal effect on H: barnyard grass (criteria 0-5) (barnyard grass [5]): 4 (Herbicidal rate of 70% or more and less than 90%); herbicidal effect on J: blackgrass (criteria 0-5) (blackgrass): 1 (Herbicidal rate of 5% or more and less than 20%); herbicidal effect on K: Italian ryegrass (criteria 0-5) (Italian ryegrass): 3 (Herbicidal rate of 40% or more and less than 70%); herbicidal effect on M: velvetleaf (criteria 0-5) (velvetleaf [6]): 5 (Herbicidal rate of 90% or more (almost completely withered)); herbicidal effect on N: redroot pigweed (criteria 0-5) (redroot pigweed): 5 (Herbicidal rate of 90% or more (almost completely withered)); herbicidal effect on O: lambsquarters (criteria 0-5) (lambsquarters [7]): 4 (Herbicidal rate of 70% or more and less than 90%)
5 | C#CCSCc1ccc(-c2sc3ccc(F)cc3c2-c2c(O)c(C)nn(C)c2=O)cc1 [2-325] | 2 (Herbicidal rate of 20% or more and less than 40%) | 0 (Herbicidal rate of 5% or less (almost no effect)) | 2 (Herbicidal rate of 20% or more and less than 40%) | 5 (Herbicidal rate of 90% or more (almost completely withered)) | 3 (Herbicidal rate of 40% or more and less than 70%) | 3 (Herbicidal rate of 40% or more and less than 70%) | 0 (Herbicidal rate of 5% or less (almost no effect)) | 0 (Herbicidal rate of 5% or less (almost no effect)) | 4 (Herbicidal rate of 70% or more and less than 90%) | 5 (Herbicidal rate of 90% or more (almost completely withered)) | 5 (Herbicidal rate of 90% or more (almost completely withered)) | 4 (Herbicidal rate of 70% or more and less than 90%) | 4 (Herbicidal rate of 70% or more and less than 90%) | 5 (Herbicidal rate of 90% or more (almost completely withered)) | 5 (Herbicidal rate of 90% or more (almost completely withered)) | 5 (Herbicidal rate of 90% or more (almost completely withered)) | – | – | – | – | –
